Here are results for 13 molecules from US8815857B2 (Boehringer Ingelheim International GmbH, priority 2011, dated 2014).

The data set in a line: Assessment of solubility: HT solubility in pION buffer, UV spectrophotometry. To be noted: for solubility: kinetic from dmso stock.
Setting [1] is: pION system solution buffer, pH 4.5, pH 4.5, aqueous buffer, Solubility (pH 4.5), pH 4.5 buffer, 16-19 h incubation, 1.0% DMSO.
Where [2] appears, read: pION system solution buffer, pH 7.4, pH 7.4, aqueous buffer, Solubility (pH 7.4), pH 7.4 buffer, 16-19 h incubation, 1.0% DMSO.

≈ marks a conversion by molar mass, not a printed value. Where only a bound is given, the exact number is not on record here.

Regarding `Cc1cc(CN2CCCCC2)ccc1COc1ccc(C#N)cc1-c1csc(N2CCC(C(=O)O)CC2)n1` [Compound 169], the solubility (as a rule, the concentration that dissolves in the medium under given conditions) was above 57 µg/mL under setting [1] and above 57 µg/mL under setting [2].
Take `Cc1cc(CN2CCS(=O)(=O)CC2)ccc1COc1ccc(Cl)cc1-c1csc(N2CC3C(C2)C3C(=O)O)n1` (centres unmarked) [Compound 128]: the solubility is, setting by setting: under setting [1], 0.45 µg/mL (≈ 0.765 µM); under setting [2], above 58 µg/mL.
Consider `Cc1cc(CN2CCC(C(N)=O)CC2)ccc1COc1c(C)cccc1-c1csc(N2CCC(C(=O)O)CC2)n1` [Compound 93], for which the solubility under setting [1] is above 56 µg/mL and the solubility under setting [2] was above 56 µg/mL.
Consider `Cc1ccc(OCc2ccc(CN3CCC(O)CC3)cc2C)c(-c2csc(N3CCC(C(=O)O)CC3)n2)c1` [Compound 175], for which the solubility is, setting by setting: under setting [1], above 55 µg/mL; under setting [2], above 55 µg/mL.
On to `Cc1cc(CN2CCS(=O)(=O)CC2)ccc1COc1ccc(F)cc1-c1csc(N2CCC(C(=O)O)C(C(F)(F)F)C2)n1` (centres unmarked) [Compound 155], for which the solubility is 0.3 µg/mL (≈ 0.468 µM) under setting [1] and above 63 µg/mL under setting [2].
Take `Cc1cc(CN2CCC(O)CC2)ccc1COc1ccc(C#N)cc1-c1csc(N2CCC(C(=O)O)CC2)n1` [Compound 170]: the solubility by setting is: under setting [1], 37 µg/mL (≈ 67.7 µM); under setting [2], 24 µg/mL (≈ 43.9 µM).
The matching figures for `Cc1ccc(OCc2ccc(CN3CCOCC3)cc2C)c(-c2csc(N3CCC[C@@H](C(=O)O)C3)n2)c1` [Compound 19]: above 52 µg/mL and above 52 µg/mL.
With `Cc1ccc(OCc2ccc(C(=O)N3CCCC3)cc2C)c(-c2csc(N3CCC(C(=O)O)CC3)n2)c1` [Compound 7], the “Solubility (pH 4.5)” value (pH 4.5 buffer, 16-19 h incubation, 1.0% DMSO) is above 62 μg/mL. Under setting [2], this molecule had a solubility of 42 µg/mL (≈ 80.8 µM).
As to `COCCN(C)Cc1ccc(COc2ccc(C)cc2-c2csc(N3CCC(C(=O)O)CC3)n2)c(C)c1` [Compound 27], the solubility is, setting by setting: under setting [1], above 63 µg/mL; under setting [2], above 63 µg/mL.
For `Cc1ccc(OCc2ccc(CN3CCOCC3)cc2C)c(-c2csc(N3CCC(C(=O)O)C(C(F)(F)F)C3)n2)c1` (centres unmarked) [Compound 213], the solubility under setting [1] was found to be 32 µg/mL (≈ 54.3 µM) and the solubility under setting [2] stood at 41 µg/mL (≈ 69.5 µM).
The matching figures for `Cc1ccc(OCc2ccc(CN3CCCCC3)cc2C)c(-c2csc(N3CCC(C(=O)O)CC3)n2)c1` [Compound 18]: above 63 µg/mL and above 63 µg/mL.
Take `CCc1cc(C(=O)N2CCN(C)C(=O)C2)ccc1COc1ccc(C)cc1-c1csc(N2C[C@H]3CC[C@@H](C2)[C@H]3C(=O)O)n1` [Compound 295]: the solubility was determined as 60 µg/mL (≈ 99.5 µM) (pH 6.8, aqueous buffer, Solubility (pH 6.8), pH 6.8) and 0.45 µg/mL (≈ 0.747 µM) under setting [1].
Take `Cc1cc(CN2CCCCC2)ccc1COc1c(C)cccc1-c1csc(N2CCC(C(=O)O)CC2)n1` [Compound 16]: the solubility was above 51 µg/mL under setting [1] and 33 µg/mL (≈ 63.5 µM) under setting [2].
